Results as given in patent publication US20110034427A1, “Anti-aging properties of quercetin, 18alpha-glycyrrhetinic acid and hederagenin and their derivatives” (priority 2009, published 2011).
Entries after “also recorded” stand apart in the source; their conditions may differ.

Tests used:
[1] = system: HFL-1 human diploid fibroblasts; assay: Lifespan (cumulative population doublings) and morphology of human diploid fibroblasts under continuous treatment; assay type: cell-based; conditions: for appearance of the senescent phenotype (conclusion): continuous treatment, morphology, shape, β-galactosidase positive cells
Method: 1.1. HFL-1 human diploid fibroblasts (HDFs) were used in in vitro conditions (growth at 37° C., 5% CO2 and 95% humidity).
1.2. The cells were maintained in Dulbecco's modified Eagle's medium (DMEM®; Invitrogen Life Technologies Inc.) supplemented with 10% (v/v) fetal calf serum, 100 Units/ma penicillin, 100 μg/ml strepromycin, 2 mM glutamine and 1% (v/v) non-essential amino acids (complete medium).
1.3. The cells were constantly cultured in culture medium supplemented with the substances [final concentration for quercetin (QUER), 18α-glycyrrhetinic acid (18α GA), and hederagenin (HED): 2 μg/ml and for quercetin caprylate (QU-CAP) three concentrations were applied: 0.5, 2 and 5 μg/ml]. Quercetin, 18α-glycyrrhetinic acid and hederagenin were diluted in DMSO (dimethyl sulfoxide) whereas quercetin caprylate was diluted in caprilic/capric triglycerides (CAP). Therefore, the control cultures were incubated in medium supplemented with 0.1% DMSO or 0.1% CAP.
1.4. The cells were replenished with fresh media supplemented with the substances or the diluents every 24 h and their numbers were examined using a Coulter Z2® counter (Coulter Corporation) until they reached senescence (approximately after 13 weeks). The cumulative population doublings performed by each culture were calculated using the following formula: CPD=Σ[PD] where PD=LOG [Nfinal/Ninitial]/LOG [2], where N final represents the number of cells that were measured when each culture reached confluence and N initial represents the number of cells that was initially seeded.
1.5. Photographs of the cells maintained in cell culture and treated with the various substances for the same time period were taken.
1.6. […] More specifically, cells that were incubated with quercetin caprylate gave up to 2.8% more population doublings as compared to the population doublings performed by the relative control cultures. Cells that were incubated with the other substances gave up to 2.9% more population doublings as compared to their relative control cultures.
1.7. […] Cells that were treated with either of the tested substances maintained the young morphology for longer as compared to the control cultures (DMSO-treated and CAP-treated).

[2] = system: middle aged and terminally senescent HFL-1 HDFs; assay: Reversal of senescent phenotype in middle aged and terminally senescent cells; assay type: cell-based, human; conditions: for proliferation of middle aged cells (FIG. 3A): middle aged HFL-1 (cpd 59), QUER, 18α GA 2 μg/ml, QU-CAP 0.5, 2 and 5 μg/ml; for proliferation of middle aged cells (FIG. 3A) / proliferation of terminally senescent cells (FIG. 3B): 1 week; for morphology of middle aged cells (FIG. 4A) / β-galactosidase activity staining of middle aged cells (FIG. 4A): middle aged HFL-1, 1 week; for β-galactosidase activity staining of middle aged cells (FIG. 4A): QU-CAP all three concentrations; for reversal of the senescent phenotype / rejuvenation effect (conclusion): middle aged cells or terminally senescent cells; for proliferation of terminally senescent cells (FIG. 3B): terminally senescent HFL-1 (cpd 65), QUER 2 μg/ml, QU-CAP 2 and 5 μg/ml; for morphology of terminally senescent cells (FIG. 4B) / β-galactosidase activity of terminally senescent cells (FIG. 4B): terminally senescent HFL-1, 1 week, QU-CAP higher concentrations
Method: 3.1. HFL-1 HDFs that have senesced in vitro were used (growth at 37° C., 5% CO2 and 95% humidity). More specifically, middle aged HFL-1 HDFs (cpd 59) and terminally senescent HFL-1 HDFs (cpd 65) that had senesced in the absence of any substance were used.
3.2. The cells were seeded and maintained in complete medium (see 1.2). Culture medium supplemented with the substances [final concentration for quercetin (QUER), 18α-glycyrrhetinic acid (18α GA), and hederagenin (HED): 2 μg/ml and for quercetin caprylate (QU-CAP) three concentrations were applied: 0.5, 2 and 5 μg/ml] or the diluents (0.1% DMSO or 0.1% CAP) were added 24 h later. The cells were replenished with fresh media supplemented with the substances or the diluents every 24 h for 1 week and their numbers were then examined using a Coulter Z2® counter (Coulter Corporation).
3.3. Detection of β-galactosidase activity was performed in these cells as described above and photographs of the cells following β-galactosidase activity assay were taken.

HFL-1 HDFs [3] = assay: Cellular survival with or without oxidative stress; assay type: cell-based, human; conditions: for survival to an oxidative stress challenge (conclusion): vs control cells
Method: 6.1. HFL-1 HDFs were cultured as described in 5.1. Following the incubation with the various substances cells were collected and counted using a Coulter Z2® counter (Coulter Corporation). In replica cultures, culture medium supplemented with the substances as described above were also supplemented with 300 μM H2O2 for 2.5 h. The cells were then thoroughly washed with PBS, supplemented with complete medium containing the examined substances and maintained in culture for additional 24 h. They were then collected and counted using a Coulter Z2® counter (Coulter Corporation).

[4] = system: proteasome subunits (β5, α7); assay: Levels of proteasome subunits (immunoblot); assay type: cell-based, human; conditions: HFL-1, 24 h treatment
Method: 8.1. HFL-1 HDFs were cultured as described in 5.1. Following the incubation with the various substances for 24 h, cells were collected, lysed and proteins were extracted and subjected to SDS-PAGE followed by immunoblot analysis against different proteasome subunits. Protein concentrations were determined using the Bradford method with BSA as a standard.
8.2. […] In total, the increased amount of proteasome subunits expression levels provide an explanation regarding the increased proteasome activities recorded in these cells.

[5] = system: Mouse melanocytes (B10F16 cell line); assay: Cellular whitening of melanocytes (cell pellet); assay type: cell-based; conditions: for whitening of melanocyte pellet (FIG. 10): 72 h; for whitening of melanocytes (conclusion): concentration not given
Method: A.1. Mouse melanocytes (B10F16 cell line) were used in in vitro conditions (growth at 37° C., 5% CO2 and 95% humidity).
A.2. The cells were maintained in Dulbecco's modified Eagle's medium (DMEM®; Invitrogen Life Technologies Inc.) supplemented with 10% (v/v) fetal calf serum, 100 Units/ma penicillin, 100 μg/ml strepromycin, 2 mM glutamine and 1% (v/v) non-essential amino acids (complete medium).
A.3. 10^5 cells were seeded in petri dishes and the following day they were fed with medium supplemented with the substances [final concentration for all substances: 5 μg/ml and 10 μg/ml]. Quercetin (QUER), 18α-glycyrrhetinic acid (18α GA) and hederagenin (HED) were diluted in DMSO whereas quercetin caprylate was diluted in caprilic/capric triglycerides (CAP). Therefore, the control cultures were incubated in medium supplemented with 0.1% DMSO or 0.1% CAP. The media were replenished every 24 h and the cells were kept under these conditions constantly for 72 h. Cells were then collected and pelleted and the cell pellet was photographed.
A.4. […] The result was positively correlated to the concentration of quercetin used.

tyrosinase = assay: Tyrosinase expression (immunoblot); assay type: cell-based, mouse; conditions: for protein expression levels of tyrosinase (conclusion): concentration not given; for protein levels of tyrosinase (FIG. 11): mouse melanocytes, 72 h
Method: B.1. Mouse melanocytes were cultured as described in A.1.-A.3. After 72 h of treatment, the cells were collected, lysed and proteins were extracted and subjected to SDS-PAGE followed by immunoblot analysis against tyrosinase. Protein concentrations were determined using the Bradford method with BSA as a standard.

HFL-1 HDFs [6] = assay: Levels of oxidized proteins (OxyBlot analysis); assay type: cell-based, human; conditions: HFL-1, 24 h treatment; vs control
Method: 4.1. HFL-1 HDFs were cultured as described in 1.1-1.4. Cells treated with the substances for 24 h and were then lysed and proteins were extracted and subjected to SDS-PAGE (sodium dodecylsulfate polyacrylamide gel electrophorese) followed by OxyBlot analysis that detects the carbonylated groups on proteins. OxyBlot™ is a protein oxidation detection kit.
4.2. […] However it is worth mentioning that OxyBlot analysis detects only carbonylated groups on proteins which is just one oxidative stress-mediated post-translational protein modification.

Q: Which results are given for O=c1c(O)c(-c2ccc(O)c(O)c2)oc2cc(O)cc(O)c12 [quercetin, Quercetin]?
A: appearance of the senescent phenotype (conclusion) [1]: delay in the appearance of the senescent phenotype; proliferation of middle aged cells (FIG. 3A) [2]: higher proliferation rates; morphology of middle aged cells (FIG. 4A) [2]: acquired a morphology more similar to the one exhibited by young cells; β-galactosidase activity staining of middle aged cells (FIG. 4A) [2]: less positive to β-galactosidase activity staining; reversal of the senescent phenotype / rejuvenation effect (conclusion) [2]: regained a younger morphology and were induced to limited but significant proliferation; proliferation of terminally senescent cells (FIG. 3B) [2]: limited but significant cell proliferation; morphology of terminally senescent cells (FIG. 4B) [2]: acquired a morphology that exhibits more similarities with the morphology of young fibroblasts; β-galactosidase activity of terminally senescent cells (FIG. 4B) [2]: many of those cells were negative for β-galactosidase activity; survival to an oxidative stress challenge (conclusion) (HFL-1 HDFs [3]): survived better; protein levels of proteasome subunits β5 and α7 (FIG. 9) [4]: elevated protein levels; whitening of melanocyte pellet (FIG. 10) ([5]; both concentrations (5 and 10 μg/ml)): revealed whitening potential; whitening of melanocytes (conclusion) [5]: revealed whitening potential; protein expression levels of tyrosinase (conclusion) (tyrosinase): decrease of the protein expression levels of tyrosinase; protein levels of tyrosinase (FIG. 11) (tyrosinase; 5 and 10 μg/ml): reduced protein levels of tyrosinase

Q: Which results are given for CC1(C)[C@@H](O)CC[C@]2(C)[C@H]3C(=O)C=C4[C@H]5C[C@@](C)(C(=O)O)CC[C@]5(C)CC[C@@]4(C)[C@]3(C)CC[C@@H]12 [18α-glycyrrhetinic acid]?
A: appearance of the senescent phenotype (conclusion) [1]: delay in the appearance of the senescent phenotype; proliferation of middle aged cells (FIG. 3A) [2]: higher proliferation rates; morphology of middle aged cells (FIG. 4A) [2]: acquired a morphology more similar to the one exhibited by young cells; β-galactosidase activity staining of middle aged cells (FIG. 4A) [2]: less positive to β-galactosidase activity staining; reversal of the senescent phenotype / rejuvenation effect (conclusion) [2]: regained a younger morphology and were induced to limited but significant proliferation; levels of oxidized (carbonylated) proteins (FIG. 5) (HFL-1 HDFs [6]): lower amounts of oxidized proteins; also recorded: slightly lower levels; higher survival rate after oxidative stress as compared to control cultures (HFL-1 HDFs [3]; 300 μM H2O2 for 2.5 h, then additional 24 h in culture): 2%; higher survival rate as compared to diluent-treated cells (HFL-1 HDFs [3]; 24 h treatment, without oxidative stress): 3.5%; survival to an oxidative stress challenge (conclusion) (HFL-1 HDFs [3]): survived better; protein levels of proteasome subunits β5 and α7 (FIG. 9) [4]: similar; whitening of melanocytes (conclusion) [5]: revealed whitening potential; whitening of melanocyte pellet (FIG. 10) ([5]; lower concentration (5 μg/ml)): revealed whitening potential; protein expression levels of tyrosinase (conclusion) (tyrosinase): decrease of the protein expression levels of tyrosinase

Q: With Quercetin caprylate as the molecule, how does the “more population doublings as compared to the relative control cultures” value ([1]; HFL-1, continuous treatment about 13 weeks, QU-CAP 0.5, 2 and 5 μg/ml, others 2 μg/ml, vs 0.1% DMSO or 0.1% CAP) read?
A: Its value is “up to 2.8%”.

Q: What about the “appearance of the senescent phenotype (conclusion)” value [1] of the same molecule?
A: The value was “delay in the appearance of the senescent phenotype”.

Q: And the “proliferation of middle aged cells (FIG. 3A)” value [2]?
A: The value was “higher proliferation rates”.

Q: What about the “morphology of middle aged cells (FIG. 4A)” value [2] of the same molecule?
A: Its value is “acquired a morphology more similar to the one exhibited by young cells”.

Q: What about the “β-galactosidase activity staining of middle aged cells (FIG. 4A)” value [2] of the same molecule?
A: The value was “less positive to β-galactosidase activity staining”.

Q: And the “reversal of the senescent phenotype / rejuvenation effect (conclusion)” value [2]?
A: Its value is “regained a younger morphology and were induced to limited but significant proliferation”.

Q: And the “proliferation of terminally senescent cells (FIG. 3B)” value [2]?
A: The value was “limited but significant cell proliferation”.

Q: What about the “morphology of terminally senescent cells (FIG. 4B)” value [2] of the same molecule?
A: Its value is “acquired a morphology that exhibits more similarities with the morphology of young fibroblasts”.

Q: And the “β-galactosidase activity of terminally senescent cells (FIG. 4B)” value [2]?
A: Its value is “many of those cells were negative for β-galactosidase activity”.

Q: What about the “levels of oxidized (carbonylated) proteins (FIG. 5)” value (HFL-1 HDFs [6]) of the same molecule?
A: The value was “lower amounts of oxidized proteins; also recorded: less oxidized proteins”.

Q: What about the “survival to an oxidative stress challenge (conclusion)” value (HFL-1 HDFs [3]) of the same molecule?
A: The value was “survived better”.

Q: What about the “protein levels of proteasome subunits β5 and α7 (FIG. 9)” value [4] of the same molecule?
A: Its value is “elevated protein levels”.

Q: What about the “protein levels of tyrosinase (FIG. 11)” value (tyrosinase; 5 and 10 μg/ml) of the same molecule?
A: Its value is “reduced protein levels of tyrosinase”.

Q: Which “protein levels of proteasome subunits β5 and α7 (FIG. 9)” value [4] does the source give for CC1(C)CC[C@]2(C(=O)O)CC[C@]3(C)C(=CC[C@@H]4[C@@]5(C)CC[C@H](O)[C@@](C)(CO)[C@@H]5CC[C@]43C)[C@@H]2C1 [hederagenin, Hederagenin] here?
A: The value was “did not detect any up-regulation”.

Q: What about the “whitening of melanocytes (conclusion)” value [5] of the same molecule?
A: Its value is “revealed whitening potential”.

Q: And the “whitening of melanocyte pellet (FIG. 10)” value ([5]; lower concentration (5 μg/ml))?
A: The value was “revealed whitening potential”.

Q: And the “protein expression levels of tyrosinase (conclusion)” value (tyrosinase)?
A: Its value is “decrease of the protein expression levels of tyrosinase”.

Q: What about the “protein levels of tyrosinase (FIG. 11)” value (tyrosinase; high concentration) of the same molecule?
A: The value was “reduced protein levels of tyrosinase”.
